The values that follow are results of earlier work, collected in patent US9119775B2, “Use of pilocarpine for hypoptyalism treatment” (priority 2004, dated 2015).

Series [1] has as its system salivary glands.
For series [2], the system named is salivary glands. The conditions noted are these: according to the known pharmacokinetic studies.

The structures appear in SMILES notation.

Take `CC[C@@H]1C(=O)OC[C@@H]1Cc1cncn1C` [pilocarpine]: in the series with salivary glands [1] (oral method, after intake), the “delay of first action of the pilocarpine after intake” value is 0.45 to 1 h. Further, the undesirable secondary effects entry in the series with salivary glands [1] (oral tablets, 15 mg per day up to 30 mg per day, conducted over several weeks) is recorded as “nausea, excessive sweating, sensations of dizziness, hot flashes or asthenias”. Besides, in the series on salivary glands [2], the “duration of the effects of stimulation” value was 4 to 8 h.
